Measured values taken from patent US20230226040A1, “COMBINATION THERAPY COMPRISING AN FGFR INHIBITOR AND A KRAS INHIBITOR” (Incyte Corporation, priority 2021, published 2023).

Experiments:
H1792 = assay: 5-day Cell Titer Glo combination matrix, Bliss score; assay type: cell-based; conditions: H1792 (Lung, Mesenchymal), 5 days
Procedure: (§1) Cells were seeded in RPMI medium with 10% HI FBS at a density of 500 cells/well in Greiner, white, clear bottom, 384-well tissue culture treated plates containing 10×10 combination matrices of compound. Plates were incubated at 37° C., 5% CO2 for 5 days. On day 5, Cell Titer Glo reagent was added to the plates and ATP luminescence was detected using a Pherastar FSX reader. The synergy score for the combination effect was calculated using a Bliss score model where the Bliss score=Yab-(Ya+Yb−(YaYb))×100, where Ya and Yb are the monotherapies. Bliss scores >20 are strongly synergistic and a higher Bliss scores indicates a higher level of synergism.
(§2) Cells were seeded in RPMI medium with 10% HI FBS at a density of 500 cells/well in Greiner, white, clear bottom, 384-well tissue culture treated plates containing 10×10 combination matrices of compound. Plates were incubated at 37° C., 5% CO2 for 5 days. On day 5, Cell Titer Glo reagent was added to the plates and ATP luminescence was detected using a Pherastar FSX reader. Synergy score for the combination effect is calculated using a Bliss score model where the Bliss score=Yab−(Ya+Yb−(YaYb))×100, where Ya and Yb are the monotherapies. Bliss scores >20 are strongly synergistic and a higher Bliss scores indicates a higher level of synergism.
(§3) Cells were seeded in RPMI medium with 10% HI FBS at a density of 500 cells/well in Greiner, white, clear bottom, 384-well tissue culture treated plates containing 10×10 combination matrices of compound. Plates were incubated at 37° C., 5% CO2 for 5 days. On day 5, Cell Titer Glo reagent was added to the plates and ATP luminescence was detected using a Pherastar FSX reader. The synergy score for the combination effect was calculated using a Bliss score model where the Bliss score=Yab−(Ya+Yb−(YaYb))×100, where Ya and Yb are the monotherapies. Bliss scores >20 are strongly synergistic and a higher Bliss scores indicates a higher level of synergism.

SW-1573 = assay: as above; assay type: cell-based; conditions: 5 days
Procedure: as §1, §2, §3

[1] = tested on: LU99 lung cancer xenograft; assay: LU99 xenograft model, tumor growth inhibition; assay type: in vivo; conditions: NCr nude mice; AMG510 20 mg/kg, pemigatinib 0.3 mg/kg, alone or combined; oral QD, 30 days; last day of treatment
Procedure: The in vivo effect of combining the FGFR1 inhibitor pemigatinib plus the KRAS G12C inhibitor AMG510 was assessed in the LU99 lung cancer model (JCRB0080, JCRB) xenograft model (FIG. 3) in 6 to 8 week old female NCr nude mice (Taconic). Pemigatinib and AMG510 were suspended in 5% N,N-dimethyl acetamide (DMAC)+50 mM Citrate buffer (pH 3.0) in 0.5% methyl cellulose for oral administration. Briefly, mice were inoculated in the left flank with 1×10^7 LU99 cells re-suspended in a PBS and matrigel (Corning Life Sciences, Tewksbury, Mass) solution at 1:1. On Day 7, mice were randomized into 4 groups of 10 mice at approximate mean volume (˜212 mm^3). […] Tumor growth inhibition was calculated using the formula (1−(VT/VC))×100, where VT is the tumor volume of the treatment group on the last day of treatment, and Vc is the tumor volume of the control group on the last day of treatment. […] Statistics were determined using One-Way ANOVA.
Briefly, mice were inoculated in the left flank with 1×10^7LU99 cells re-suspended in a PBS and matrigel (Corning Life Sciences, Tewksbury, Mass) solution at 1:1. […] TGI was calculated using the formula (1−(VT/VC))×100, where VT is the tumor volume of the treatment group on the last day of treatment, and VC is the tumor volume of the control group on the last day of treatment. […]

CCN1C(=O)N(c2c(F)c(OC)cc(OC)c2F)Cc2cnc3[nH]c(CN4CCOCC4)cc3c21 [Pemigatinib, 3-(2,6-difluoro-3,5-dimethoxyphenyl)-1-ethyl-8-(morpholin-4-ylmethyl)-1,3,4,7-tetrahydro-2H-pyrrolo[3′,2′:5,6]pyrido[4,3-d]pyrimidin-2-one]
Avg. Bliss Score (H1792; FGFR inhibitor in combination with Cmpd 3): 24.2 | Avg. Bliss Score (H1792; FGFR inhibitor in combination with MRTX849): 19.9 | Avg. Bliss Score (SW-1573; SW1573 (Lung, Mesenchymal), FGFR inhibitor in combination with MRTX849): 29.5 | Avg. Bliss Score (SW-1573; SW-1573 (Lung, Mesenchymal), FGFR inhibitor in combination with Cmpd 3): 19.3 | TGI (tumor growth inhibition) [1]: 63%
